The values below are quoted from earlier work in patent US6488942B1, “Disinfecting agent” (DDG Dental Devices GmbH, priority 1997, dated 2002).

Consider `CC(=O)O.CC(=O)O.NC(=N\CCCCCC/N=C(N)/N=C(\N)Nc1ccc(Cl)cc1)/N=C(\N)Nc1ccc(Cl)cc1` [diacetate, Chlorhexidine diacetate], for which the solubility in water entry is given as “soluble in water”.
